Assay [1] has as its target KRAS G12V (Homo sapiens, UniProt P01116, G12V). In words: KRAS_G12V GDP-GTP exchange assay (bodipy-GDP/GppNHp, SOS1). Format: biochemical. As to conditions: bodipy loaded KRAS G12V 2.5 nM, 3 hours incubation after GppNHp-SOS1; read-out: G12V_exchange (KRAS_G12V exchange assay IC50). Here is the method:
(§1) The inhibitor potency of the exemplified compounds was determined in a fluorescence based guanine nucleotide exchange assay, which measures the exchange of bodipy-GDP (fluorescently labeled GDP) for GppNHp (Non-hydrolyzable GTP analog) to generate the active state of KRAS in the presence of SOS1 (guanine nucleotide exchange factor). Inhibitors were serially diluted in DMSO and a volume of 0.1 μL was transferred to the wells of a black low volume 384-well plate. 5 μL/well volume of bodipy-loaded KRAS G12D diluted to 2.5 nM in assay buffer (25 mM Hepes pH 7.5, 50 mM NaCl, 10 mM MgCl2 and 0.01% Brij-35) was added to the plate and pre-incubated with inhibitor for 4 hours at ambient temperature. Appropriate controls (enzyme with no inhibitor or with a G12D inhibitor) were included on the plate. The exchange was initiated by the addition of a 5 μL/well volume containing 1 mM GppNHp and 300 nM SOS1 in assay buffer. The 10 μL/well reaction concentration of the bodipy-loaded KRAS G12D, GppNHp, and SOS1 were 2.5 nM, 500 uM, and 150 nM, respectively. The reaction plates were incubated at ambient temperature for 2 hours, a time estimated for complete GDP-GTP exchange in the absence of inhibitor. For the KRAS G12V mutant, similar guanine nucleotide exchange assays were used with 2.5 nM as final concentration for the bodipy loaded KRAS proteins and 3 hours incubation after adding GppNHp-SOS1 mixture. A cyclic peptide described to selectively bind G12D mutant (Sakamoto et al., BBRC 484.3 (2017), 605-611) or internal compounds with confirmed binding were used as positive controls in the assay plates. Fluorescence intensities were measured on a PheraStar plate reader instrument (BMG Labtech) with excitation at 485 nm and emission at 520 nm.
(§2) Either GraphPad prism or XLfit was used to analyze the data. The IC50 values were derived by fitting the data to a four parameter logistic equation producing a sigmoidal dose-response curve with a variable Hill coefficient. Prism equation: Y=Bottom+(Top−Bottom)/(1+10^((Log IC50−X)*Hill slope)); XLfit equation: Y=(A+((B−A)/(1+((X/C)^D)))) where X is the logarithm of inhibitor concentration and Y is the response.

Assay [2] addresses KRAS G12D (Homo sapiens, UniProt P01116, G12D). As to the kind of experiment: KRAS_G12D GDP-GTP exchange assay (bodipy-GDP/GppNHp, SOS1). Format: biochemical. As to conditions: bodipy-loaded KRAS G12D 2.5 nM, 4 hours pre-incubation, 2 hours exchange; for IC50: read-out: G12D_exchange (KRAS_G12D exchange assay IC50). Here is the method:
as §1, §2

For orientation: IC50 means the concentration that gives 50% inhibition.

Sequence of KRAS G12D (P01116 1-188 isoform P01116-2 G12D): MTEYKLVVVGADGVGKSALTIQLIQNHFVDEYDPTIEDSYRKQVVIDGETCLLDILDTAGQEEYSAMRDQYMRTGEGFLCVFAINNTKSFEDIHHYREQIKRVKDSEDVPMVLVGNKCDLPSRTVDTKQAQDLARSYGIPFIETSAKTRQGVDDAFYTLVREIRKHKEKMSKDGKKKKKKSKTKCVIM
Sequence of KRAS G12V (P01116 1-188 isoform P01116-2 G12V): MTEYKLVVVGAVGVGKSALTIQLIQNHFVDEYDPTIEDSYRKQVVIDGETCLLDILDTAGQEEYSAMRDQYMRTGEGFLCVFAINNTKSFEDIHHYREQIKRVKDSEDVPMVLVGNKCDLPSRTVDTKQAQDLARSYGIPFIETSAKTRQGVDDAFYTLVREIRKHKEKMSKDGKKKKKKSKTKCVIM

Take `Cc1nc2c(F)c(-c3cc(O)cc4ccccc34)ncc2c2c1cc(CN1CCOC1=O)n2[C@@H]1[C@@H]2CN[C@H]1C2` (relative stereo) [Example 5, 3-((1-((endo)-2-azabicyclo[2.1.1]hexan-5-yl)-6-fluoro-7-(3-hydroxynaphthalen-1-yl)-4-methyl-1H-pyrrolo[3,2-c][1,6]naphthyridin-2-yl)methyl)oxazolidin-2-one]: the values for the IC50 in assay [1] and in assay [2] were 1000 to 5000 nM and 100 to 1000 nM, respectively.

As for `Cc1nc2c(nc(N3CC(N(C)C)C3)c3nc(CCC(=O)N(C)C)n([C@@H]4[C@@H]5CN[C@H]4C5)c32)c(C)c1-c1cc(O)cc2ccccc12` (relative stereo) [Example 16, 3-(1-((endo)-2-azabicyclo[2.1.1]hexan-5-yl)-4-(3-(dimethylamino)azetidin-1-yl)-7-(3-hydroxynaphthalen-1-yl)-6,8-dimethyl-1H-imidazo[4,5-c][1,5]naphthyridin-2-yl)-N,N-dimethylpropanamide], in assay [2], the IC50 fell in the range of 1000 to 5000 nM.

For the molecule `C[C@H](Oc1nc2c(F)c(-c3c[nH]c4ccc(F)cc34)ncc2c2c1cc(CN1CCOC1=O)n2C1C2CNC1C2)[C@@H]1CCCN1C` (single isomer, unassigned) [Example 6a], in assay [2], the IC50 was 100 to 1000 nM.

`Cc1cc2c(O[C@@H](C)[C@@H]3CCCN3C)nc3c(F)c(N4CCc5ccccc54)ncc3c2n1C1C2CNC1C2` (single isomer, unassigned) [Example 8a]: the IC50 in assay [1] was 100 to 1000 nM. In addition, the “G12D_exchange (KRAS_G12D exchange assay IC50)” value (“G12D_exchange” below) in assay [2] is reported as “†”.

For `Cc1cc2c(O[C@@H](C)[C@@H]3CCCN3C)nc3c(F)c(N4CCc5ccccc54)ncc3c2n1C1C2CNC1C2` (single isomer, unassigned) [Example 8b], the IC50 in assay [1] is 1000 to 5000 nM; in assay [2] it was 100 to 1000 nM.

For the molecule `C[C@H](Oc1nc2c(F)c(-c3cc(O)cc4ccccc34)ncc2c2c1nc(CCC(=O)N(C)C)n2C1C2CNC1C2)[C@@H]1CCCN1C` (single isomer, unassigned) [Example 9b], the IC50 in assay [1] is not above 100 nM. Also, in assay [2], the “G12D_exchange” value is “†”.

Consider `CN(C)C(=O)CCc1nc2c(N3CC(N(C)C)C3)nc3c(F)c(-c4cccc5c4C(C#N)CC5)ncc3c2n1C1C2CNC1C2` (single isomer, unassigned) [Example 10b, 3-(1-((endo)-2-azabicyclo[2.1.1]hexan-5-yl)-7-(3-cyano-2,3-dihydro-1H-inden-4-yl)-4-(3-(dimethylamino)azetidin-1-yl)-6-fluoro-1H-imidazo[4,5-c][1,6]naphthyridin-2-yl)-N,N-dimethylpropanamide], for which, in assay [2], the IC50 fell in the range of 1000 to 5000 nM.

Turning to `CN(C)C(=O)CCc1nc2c(N3CC(N(C)C)C3)nc3cc(-c4cc(O)cc5ccccc45)c(CCC#N)nc3c2n1C1C2CNC1C2` (single isomer, unassigned) [Example 17a, 3-(1-((endo)-2-azabicyclo[2.1.1]hexan-5-yl)-8-(2-cyanoethyl)-4-(3-(dimethylamino)azetidin-1-yl)-7-(3-hydroxynaphthalen-1-yl)-1H-imidazo[4,5-c][1,5]naphthyridin-2-yl)-N,N-dimethylpropanamide], the IC50 in assay [1] was 1000 to 5000 nM. The “G12D_exchange” value in assay [2] was “†”.

As to `C[C@H](Oc1nc2c(F)c(-c3cccc4c3OCCC4)ncc2c2c1cc(C1CCc3cccc(=O)n31)n2[C@H]1[C@H]2CN[C@@H]1C2)[C@@H]1CCCN1C` (single isomer, unassigned) [Example 20a], the IC50 in assay [1] is not above 100 nM. Further, the “G12D_exchange” value in assay [2] is “†”.

Take `Cc1cc2c(O[C@@H](C)[C@@H]3CCCN3C)nc3c(F)c(-c4cc(O)cc5ccc(F)cc45)ncc3c2n1[C@H]1[C@H]2CN[C@@H]1C2` [Example 18, 4-(1-((1R,4R,5S)-2-Azabicyclo[2.1.1]hexan-5-yl)-6-fluoro-2-methyl-4-((S)-1-((S)-1-methylpyrrolidin-2-yl)ethoxy)-1H-pyrrolo[3,2-c][1,6]naphthyridin-7-yl)-6-fluoronaphthalen-2-ol]: in assay [1], the IC50 was not above 100 nM. For the same molecule, the “G12D_exchange” value in assay [2] is reported as “†”.

Take `CC(=O)N1CCC[C@@H]1c1cc2c(O[C@@H](C)[C@@H]3CCCN3C)nc3c(F)c(-c4cccc5scnc45)ncc3c2n1[C@H]1[C@H]2CN[C@@H]1C2` [Example 19, 1-((R)-2-(7-(Benzo[d]thiazol-4-yl)-1-((1R,4R,5S)-2-azabicyclo[2.1.1]hexan-5-yl)-6-fluoro-4-((S)-1-((S)-1-methylpyrrolidin-2-yl)ethoxy)-1H-pyrrolo[3,2-c][1,6]naphthyridin-2-yl)pyrrolidin-1-yl)ethan-1-one]: the IC50 in assay [1] was not above 100 nM. For the same molecule, the “G12D_exchange” value in assay [2] is on record as “†”.

`C[C@H](Oc1nc2c(F)c(-c3cccc4c3OCCC4)ncc2c2c1cc([C@@H](C)n1ccccc1=O)n2[C@H]1[C@H]2CN[C@@H]1C2)[C@@H]1CCCN1C` [Example 21, 1-((R)-1-(1-((1R,4R,5S)-2-Azabicyclo[2.1.1]hexan-5-yl)-7-(chroman-8-yl)-6-fluoro-4-((S)-1-((S)-1-methylpyrrolidin-2-yl)ethoxy)-1H-pyrrolo[3,2-c][1,6]naphthyridin-2-yl)ethyl)pyridin-2(1H)-one]: in assay [1], the IC50 was not above 100 nM. Also, the “G12D_exchange” value in assay [2] was “†”.

As for `COC(=O)N1CCC[C@@H]1c1cc2c(N3CC(C)(N(C)C)C3)nc3c(F)c(-c4cccc(Cl)c4Cl)ncc3c2n1[C@H]1[C@H]2CN[C@@H]1C2` [Example 22, Methyl (R)-2-(1-((1R,4R,5S)-2-azabicyclo[2.1.1]hexan-5-yl)-7-(2,3-dichlorophenyl)-4-(3-(dimethylamino)-3-methylazetidin-1-yl)-6-fluoro-1H-pyrrolo[3,2-c][1,6]naphthyridin-2-yl)pyrrolidine-1-carboxylate], the IC50 in assay [1] was in the range of 100 to 1000 nM. Also, the “G12D_exchange” value in assay [2] is “†”.

Take `COC(=O)N1CCC[C@@H]1c1cc2c(O[C@@H](C)[C@@H]3CCCN3C)nc3c(F)c(-c4cccc(Cl)c4Cl)ncc3c2n1[C@H]1[C@H]2CN[C@@H]1C2` [Example 23, Methyl (R)-2-(1-((1R,4R,5S)-2-azabicyclo[2.1.1]hexan-5-yl)-7-(2,3-dichlorophenyl)-6-fluoro-4-((S)-1-((S)-1-methylpyrrolidin-2-yl)ethoxy)-1H-pyrrolo[3,2-c][1,6]naphthyridin-2-yl)pyrrolidine-1-carboxylate]: the IC50 in assay [1] was not above 100 nM. The “G12D_exchange” value in assay [2] is reported as “†”.

As to `CNC(=O)c1cccc(-c2nc3c(F)c(-c4cccc(C)c4Cl)ncc3c3c2cc([C@H]2CCCN2C(=O)OC)n3[C@H]2[C@H]3CN[C@@H]2C3)n1` [Example 24, Methyl (R)-2-(1-((1R,4R,5S)-2-azabicyclo[2.1.1]hexan-5-yl)-7-(2-chloro-3-methylphenyl)-6-fluoro-4-(6-(methylcarbamoyl)pyridin-2-yl)-1H-pyrrolo[3,2-c][1,6]naphthyridin-2-yl)pyrrolidine-1-carboxylate], the IC50 in assay [1] fell in the range of 5000 to 10000 nM. Besides, in assay [2], the “G12D_exchange” value was “†”.

These data come from patent publication US12441742B2, “Naphthyridine compounds as inhibitors of KRAS” (Incyte Corporation, priority 2021, dated 2025).
